Assay results from patent US11447466B2, “Substituted indole compounds useful as inhibitors of TLR7/8/9” (BRISTOL-MYERS SQUIBB COMPANY, priority 2017, dated 2022).

Assays:
Format in all cases: cell-based
[1] = molecular target: T1, human TLR8 (Homo sapiens, UniProt Q9NR97); test: TLR8 inhibition reporter assay (HEK-Blue SEAP reporter, R848 stimulation); details: HEK-Blue cells overexpressing human TLR8, SEAP reporter, R848 15.9 μM, 22 hour incubation
T1 construct: host or cells: HEK-Blue cells
T1 sequence (Q9NR97 27-1041): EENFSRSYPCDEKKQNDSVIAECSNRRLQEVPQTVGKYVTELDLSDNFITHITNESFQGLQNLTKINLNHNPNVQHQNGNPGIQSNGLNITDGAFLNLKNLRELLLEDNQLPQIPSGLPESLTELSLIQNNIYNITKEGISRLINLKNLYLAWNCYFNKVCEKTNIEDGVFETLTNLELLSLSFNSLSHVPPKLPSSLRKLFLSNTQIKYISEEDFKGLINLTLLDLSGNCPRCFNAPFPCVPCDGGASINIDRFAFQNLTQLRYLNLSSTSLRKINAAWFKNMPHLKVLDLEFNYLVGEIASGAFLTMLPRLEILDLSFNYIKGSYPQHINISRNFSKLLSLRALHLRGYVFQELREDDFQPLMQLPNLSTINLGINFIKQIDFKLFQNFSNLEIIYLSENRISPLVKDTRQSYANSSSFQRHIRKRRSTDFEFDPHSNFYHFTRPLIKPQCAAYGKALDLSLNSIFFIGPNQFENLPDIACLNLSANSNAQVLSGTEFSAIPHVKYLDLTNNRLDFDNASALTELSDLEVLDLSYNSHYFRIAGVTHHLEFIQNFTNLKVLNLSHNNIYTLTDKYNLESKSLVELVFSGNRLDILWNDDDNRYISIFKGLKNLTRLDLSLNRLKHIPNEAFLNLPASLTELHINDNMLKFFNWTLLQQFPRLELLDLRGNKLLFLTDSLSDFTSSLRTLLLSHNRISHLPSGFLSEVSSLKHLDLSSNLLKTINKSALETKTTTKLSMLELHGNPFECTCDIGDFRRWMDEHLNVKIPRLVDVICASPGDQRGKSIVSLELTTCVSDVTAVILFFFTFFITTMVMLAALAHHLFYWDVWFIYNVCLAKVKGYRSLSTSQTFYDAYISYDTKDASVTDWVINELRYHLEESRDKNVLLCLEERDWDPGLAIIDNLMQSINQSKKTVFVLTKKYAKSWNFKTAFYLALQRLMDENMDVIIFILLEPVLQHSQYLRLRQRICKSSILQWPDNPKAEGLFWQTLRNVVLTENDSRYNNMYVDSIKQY
Outline: (§1)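 Dose–response from 0.05 nM to 50 μM was run in HEK-Blue human TLR7, TLR8 and TLR9 reporter cells. After 30 min at room temperature with compound, ligand was added (TLR7 gardiquimod 7.5 μM; TLR8 R848 15.9 μM; TLR9 ODN2006 5 nM) and SEAP measured next day, at 22 h.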

[2] = molecular target: T2, human TLR7 (Homo sapiens, UniProt Q9NYK1); test: TLR7 inhibition reporter assay (HEK-Blue SEAP reporter, gardiquimod stimulation); details: HEK-Blue cells overexpressing human TLR7, SEAP reporter, gardiquimod 7.5 μM, 22 hour incubation
T2 construct: host or cells: HEK-Blue cells
T2 sequence (Q9NYK1 27-1049): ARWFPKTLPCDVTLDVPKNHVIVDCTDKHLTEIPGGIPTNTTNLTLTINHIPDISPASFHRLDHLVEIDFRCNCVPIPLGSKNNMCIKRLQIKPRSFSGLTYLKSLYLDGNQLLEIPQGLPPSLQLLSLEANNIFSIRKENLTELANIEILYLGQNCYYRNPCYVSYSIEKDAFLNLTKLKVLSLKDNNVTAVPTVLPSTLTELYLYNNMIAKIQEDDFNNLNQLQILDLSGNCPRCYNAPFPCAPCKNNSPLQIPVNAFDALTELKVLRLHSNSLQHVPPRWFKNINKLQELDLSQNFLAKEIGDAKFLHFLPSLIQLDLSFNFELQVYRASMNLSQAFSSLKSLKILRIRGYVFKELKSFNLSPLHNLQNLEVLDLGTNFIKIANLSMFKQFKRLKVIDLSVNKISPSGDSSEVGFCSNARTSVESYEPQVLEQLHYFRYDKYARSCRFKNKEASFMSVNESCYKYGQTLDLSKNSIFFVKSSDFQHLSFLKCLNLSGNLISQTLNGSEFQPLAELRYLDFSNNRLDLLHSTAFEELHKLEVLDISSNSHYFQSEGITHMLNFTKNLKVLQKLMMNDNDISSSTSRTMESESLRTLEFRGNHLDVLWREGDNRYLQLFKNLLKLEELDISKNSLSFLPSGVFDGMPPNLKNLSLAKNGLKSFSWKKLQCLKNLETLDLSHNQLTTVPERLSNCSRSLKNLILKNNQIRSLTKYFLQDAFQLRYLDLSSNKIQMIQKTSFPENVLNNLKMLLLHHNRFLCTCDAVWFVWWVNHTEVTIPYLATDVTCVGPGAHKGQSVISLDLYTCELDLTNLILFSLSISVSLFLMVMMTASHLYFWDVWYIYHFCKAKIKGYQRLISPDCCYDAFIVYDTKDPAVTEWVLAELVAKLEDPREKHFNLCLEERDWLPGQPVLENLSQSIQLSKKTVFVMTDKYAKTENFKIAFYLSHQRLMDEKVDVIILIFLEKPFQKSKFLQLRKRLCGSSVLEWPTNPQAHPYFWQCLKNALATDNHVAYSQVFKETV
Outline: as §1

[3] = molecular target: T3, human TLR9 (Homo sapiens, UniProt Q9NR96); test: TLR9 inhibition reporter assay (HEK-Blue SEAP reporter, ODN2006 stimulation); details: HEK-Blue cells overexpressing human TLR9, SEAP reporter, ODN2006 5 nM, 22 hour incubation
T3 construct: host or cells: HEK-Blue cells
T3 sequence (Q9NR96 26-1032): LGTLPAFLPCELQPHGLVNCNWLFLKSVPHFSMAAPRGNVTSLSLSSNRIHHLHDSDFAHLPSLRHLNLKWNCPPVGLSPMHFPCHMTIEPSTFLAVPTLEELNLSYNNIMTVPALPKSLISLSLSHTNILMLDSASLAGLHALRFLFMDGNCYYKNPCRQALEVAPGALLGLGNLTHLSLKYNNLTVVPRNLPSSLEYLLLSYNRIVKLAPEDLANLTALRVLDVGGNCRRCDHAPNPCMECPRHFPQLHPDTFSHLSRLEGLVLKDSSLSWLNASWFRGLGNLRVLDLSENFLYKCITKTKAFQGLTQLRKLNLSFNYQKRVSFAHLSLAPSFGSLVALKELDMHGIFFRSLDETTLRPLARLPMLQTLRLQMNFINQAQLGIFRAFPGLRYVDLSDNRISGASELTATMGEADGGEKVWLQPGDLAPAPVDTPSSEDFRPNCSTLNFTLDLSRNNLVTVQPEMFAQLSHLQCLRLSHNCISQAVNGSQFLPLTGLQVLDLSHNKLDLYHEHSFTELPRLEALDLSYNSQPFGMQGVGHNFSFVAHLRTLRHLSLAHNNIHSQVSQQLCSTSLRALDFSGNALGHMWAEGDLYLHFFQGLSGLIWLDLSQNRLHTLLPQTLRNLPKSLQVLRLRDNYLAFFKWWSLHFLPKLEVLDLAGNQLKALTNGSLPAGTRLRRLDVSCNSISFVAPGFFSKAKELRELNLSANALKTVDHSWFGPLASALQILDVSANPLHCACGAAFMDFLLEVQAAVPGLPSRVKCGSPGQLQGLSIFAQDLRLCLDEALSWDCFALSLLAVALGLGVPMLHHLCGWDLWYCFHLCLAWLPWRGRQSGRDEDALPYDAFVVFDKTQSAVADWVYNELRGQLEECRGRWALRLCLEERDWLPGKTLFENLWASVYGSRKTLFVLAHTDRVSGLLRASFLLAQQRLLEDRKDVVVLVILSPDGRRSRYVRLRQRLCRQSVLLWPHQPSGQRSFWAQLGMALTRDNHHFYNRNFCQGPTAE
Outline: as §1

Row | Compound | IC50 [1] [nM] | IC50 [2] [nM] | IC50 [3] [nM]
1 | Cc1cc(-c2[nH]c3ccc(C4CCN(C5COC5)CC4)cc3c2C(C)C)c(C)n(C)c1=O [Example 211, 5-(3-isopropyl-5-(1-(oxetan-3-yl)piperidin-4-yl)-1H-indol-2-yl)-1,3,6-trimethylpyridin-2(1H)-one] | 17.1 | 34.6 | ≥ 50000
2 | Cc1c(-c2[nH]c3ccc(C4CCN(C(C)C)CC4)cc3c2C(C)C)cn(C)c(=O)c1C [Example 212, 5-(3-isopropyl-5-(1-isopropylpiperidin-4-yl)-1H-indol-2-yl)-1,3,4-trimethylpyridin-2(1H)-one] | 17.4 | 17.1 | 12600
3 | CCn1cc(-c2[nH]c3ccc(C4CCN(C(C)C)CC4)cc3c2C(C)C)c(C)c(C)c1=O [Example 213, 1-ethyl-5-(3-isopropyl-5-(1-isopropylpiperidin-4-yl)-1H-indol-2-yl)-3,4-dimethylpyridin-2(1H)-one] | 16.5 | 15.6 | 2910
4 | Cc1cc(-c2[nH]c3ccc(C4CCN(C(C)C)CC4)cc3c2C(C)C)c(C)n(C)c1=O [Example 214, 5-(3-isopropyl-5-(1-isopropylpiperidin-4-yl)-1H-indol-2-yl)-1,3,6-trimethylpyridin-2(1H)-one] | 7.9 | 13.9 | 5690
5 | COc1c(C)c(-c2[nH]c3ccc(C4CCN(C5COC5)CC4)cc3c2C(C)C)cn(C)c1=O [Example 215, 5-(3-isopropyl-5-(1-(oxetan-3-yl)piperidin-4-yl)-1H-indol-2-yl)-3-methoxy-1,4-dimethylpyridin-2(1H)-one] | 54.9 | 66.1 | 17200
6 | COc1cc(-c2[nH]c3ccc(C4CCN(C5COC5)CC4)cc3c2C(C)C)c(C)n(C)c1=O [Example 217, 5-(3-isopropyl-5-(1-(oxetan-3-yl)piperidin-4-yl)-1H-indol-2-yl)-3-methoxy-1,6-dimethylpyridin-2(1H)-one] | 163 | 659 | 10900
7 | Cc1c(-c2[nH]c3ccc(C4CCN(C5COC5)CC4)cc3c2C(C)C)cc(C#N)c(=O)n1C [Example 219, 5-(3-isopropyl-5-(1-(oxetan-3-yl)piperidin-4-yl)-1H-indol-2-yl)-1,6-dimethyl-2-oxo-1,2-dihydropyridine-3-carbonitrile] | 9.1 | 48 | 22300
8 | Cc1c(-c2[nH]c3ccc(C4CCN(C5CCOCC5)CC4)cc3c2C(C)C)cc(C#N)c(=O)n1C [Example 220, 5-(3-isopropyl-5-(1-(tetrahydro-2H-pyran-4-yl)piperidin-4-yl)-1H-indol-2-yl)-1,6-dimethyl-2-oxo-1,2-dihydropyridine-3-carbonitrile] | 1.4 | 24.5 | 2780
9 | Cc1c(-c2[nH]c3ccc(C4CCN(C5COC5)CC4)cc3c2C(C)C)cn(C)c(=O)c1C#N [Example 221, 5-(3-isopropyl-5-(1-(oxetan-3-yl)piperidin-4-yl)-1H-indol-2-yl)-1,4-dimethyl-2-oxo-1,2-dihydropyridine-3-carbonitrile] | 9.3 | 67 | 25400
10 | Cc1c(-c2[nH]c3ccc(C4CCN(C5CCOCC5)CC4)cc3c2C(C)C)cn(C)c(=O)c1C#N [Example 222, 5-(3-isopropyl-5-(1-(tetrahydro-2H-pyran-4-yl)piperidin-4-yl)-1H-indol-2-yl)-1,4-dimethyl-2-oxo-1,2-dihydropyridine-3-carbonitrile] | 0.9 | 15.6 | 3070
11 | Cc1cc(-c2[nH]c3ccc(C4CCN(CC5CC5)CC4)cc3c2C(C)C)cn(C)c1=O [Example 223, 5-(5-(1-(cyclopropylmethyl)piperidin-4-yl)-3-isopropyl-1H-indol-2-yl)-1,3-dimethylpyridin-2(1H)-one] | 13.6 | 10 | 5910
12 | CCCN1CCC(c2ccc3[nH]c(-c4cc(C)c(=O)n(C)c4)c(C(C)C)c3c2)CC1 [Example 224, 5-(3-isopropyl-5-(1-propylpiperidin-4-yl)-1H-indol-2-yl)-1,3-dimethylpyridin-2(1H)-one] | 4.5 | 1.8 | 14000
13 | Cc1cc(-c2[nH]c3ccc(C4CCN(CC5CCOC5)CC4)cc3c2C(C)C)cn(C)c1=O (stereo not drawn) [Example 225, 5-(3-isopropyl-5-(1-((tetrahydrofuran-3-yl)methyl)piperidin-4-yl)-1H-indol-2-yl)-1,3-dimethylpyridin-2(1H)-one] | 3.6 | 4.6 | 6990
14 | CC(C)c1c(-c2cc(Cl)c(=O)n(C)c2)[nH]c2ccc(C3CCN(C4CCOCC4)CC3)cc12 [Example 226, 3-chloro-5-(3-isopropyl-5-(1-(tetrahydro-2H-pyran-4-yl)piperidin-4-yl)-1H-indol-2-yl)-1-methylpyridin-2(1H)-one] | 7 | 3.8 | 10400
15 | Cc1cc(-c2[nH]c3ccc(C4CCN(Cc5cnn(C(C)C)c5)CC4)cc3c2C(C)C)cn(C)c1=O [Example 227] | 4.1 | 3.8 | 3040
